Results from article PMC5656322, “BAK1 is involved in AtRALF1-induced inhibition of root cell expansion” (PLoS Genetics, 2017).
Where no end group is shown, it is not given here.

What was measured:
BAK1-GFP = experiment: Co-immunoprecipitation with microsomal fraction of N. benthamiana leaves expressing BAK1-GFP; format: binding, Arabidopsis thaliana; conditions: 600 nM peptide, 1 h, 4 °C, anti-GFP antibody
Description: This assay was performed as previously described with some modifications. The BAK1 coding region was amplified from Arabidopsis genomic cDNA using standard PCR with the primers BAK1 Fw and BAK1 Rv (S1 Table). To generate the p35S-BAK1:GFP plasmid, the fragment was cloned into the pENTR D-TOPO vector and later transferred to the pk7FWG2 vector [56]. Leaves from N. benthamiana plants were agroinfiltrated with p19 vector alone and p19 co-expressed with p35S-BAK1:GFP, as previously described. After 3 days, leaves were homogenized in extraction buffer [300 mM sucrose, 100 mM Tris-HCl pH 7.5, 25 mM EDTA, 25 mM NaF, 1 mM Na2MoO4, 1 mM PMSF, 1 mM DTT and protease inhibitor cocktail (Roche), pH 6.2 adjusted] and centrifuged at 1,000 g for 10 min at 4°C, and the supernatant was then centrifuged at 100,000 g for 50 min at 4°C to precipitate the microsomal pellet. The pellet was resuspended in the extraction buffer plus 0.5% Triton-X and incubated with 600 nM recombinant AtRALF1 or 600 nM RALF1(I6A) for 1 h at 4°C. The complexes were incubated with anti-GFP antibody (Santa Cruz Biotechnology) and Sepharose Beads plus protein A (Life Technologies) overnight at 4°C. […] The AtRALF1/BAK1-GFP complex bound to the beads was eluted with denaturing in 10 μl of 1X loading buffer (NuPAGE LDS buffer) at 95°C for 8 min, then analyzed by SDS-PAGE. The proteins were detected as previously described.

[1] = system: AtPRP3, AtHRGP2, CPD and DWF4 genes; experiment: Expression of hormone-responsive genes (RT-PCR, qRT-PCR); format: in vivo, Arabidopsis thaliana; conditions: bak1-1, bak1-3, bak1-4 mutants, 1 μM, 1 h
Description: Arabidopsis plants were grown for 10 days in vertical plates and then treated in liquid medium containing 1 μM AtRALF1 for 1 h at room temperature. Control plants were incubated under identical conditions in a peptide-free medium. The total RNA was isolated from the roots of Arabidopsis plants using TRIzol reagent according to the manufacturer’s instructions (Life Technologies). The cDNA was synthesized using the ImProm-II Reverse Transcription System (Promega) and 1 μg of RNA. An aliquot of cDNA (1.5 μl) was used as the template in the PCR reaction, which was performed for 29 cycles, unless indicated otherwise, using gene-specific primers (S1 Table). The glyceraldehyde 3-phosphate dehydrogenase (GAPDH) gene was used as an internal control. All experiments were repeated at least three times with independent biological replicates. The data shown are from one representative experiment.
The qRT-PCR analysis was performed using 10-fold-diluted cDNA, Maxima SYBR Green Rox/qPCR Master Mix (Thermo Scientific) and a StepOne Real-Time PCR System (Applied Biosystems). The glyceraldehyde 3-phosphate dehydrogenase (GAPDH) gene was used as an internal control. […] The threshold cycle (CT) was determined by the instrument, and the ΔΔCT method was used to calculate the fold change in each gene. […] Three replicates were analyzed for each biological sample, and two biological samples were analyzed. […]

AtRALF1: root-specific RALF isoform in Arabidopsis; recombinant peptide hormone produced in E. coli (ATTKYISYQSLKRNSVPCSRRGASYYNCQNGAQANPYSRGCSKIARCRS; ends and bridges not checked; cysteine pairing not given here)
co-immunoprecipitation with BAK1-GFP (BAK1-GFP): co-immunoprecipitated when the anti-GFP antibody was used | up-regulation of AtRALF1-inducible genes [1]: None of the AtRALF1-inducible genes were up-regulated
